Data on 33 molecules can be found in ChEMBL document CHEMBL5032539, “Indole-Containing Amidinohydrazones as Nonpeptide, Dual RXFP3/4 Agonists: Synthesis, Structure-Activity Relationship, and Molecular Modeling Studies” (J Med Chem, 2021).

Values after ≈ are worked out from the molar mass of the structure shown.

For data set [1], the target named is T1, Relaxin-3 receptor 1 (Homo sapiens, UniProt Q9NSD7).
T1 sequence (Q9NSD7 whole entry): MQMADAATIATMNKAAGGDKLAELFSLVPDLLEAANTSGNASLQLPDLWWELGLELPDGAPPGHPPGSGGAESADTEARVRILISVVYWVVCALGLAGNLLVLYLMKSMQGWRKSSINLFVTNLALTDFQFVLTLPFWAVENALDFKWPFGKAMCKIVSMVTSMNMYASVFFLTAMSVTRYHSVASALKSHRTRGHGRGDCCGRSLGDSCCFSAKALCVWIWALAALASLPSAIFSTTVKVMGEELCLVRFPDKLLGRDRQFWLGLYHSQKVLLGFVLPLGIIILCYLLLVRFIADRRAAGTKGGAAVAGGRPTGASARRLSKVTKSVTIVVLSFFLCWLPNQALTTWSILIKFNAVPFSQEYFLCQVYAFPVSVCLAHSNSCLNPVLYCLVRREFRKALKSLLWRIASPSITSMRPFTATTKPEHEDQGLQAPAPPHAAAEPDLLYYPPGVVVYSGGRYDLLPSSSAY

Another data set in a line: physchem. Particulars: buffer, pH 7.4.
The target in the next data set is Relaxin-3 receptor 2 (Homo sapiens, UniProt Q8TDU9).
The target of data set [2] is T1, Relaxin-3 receptor 1. Put plainly: biochemical.

Relaxin-3 receptor 2, sequence (Q8TDU9 whole entry): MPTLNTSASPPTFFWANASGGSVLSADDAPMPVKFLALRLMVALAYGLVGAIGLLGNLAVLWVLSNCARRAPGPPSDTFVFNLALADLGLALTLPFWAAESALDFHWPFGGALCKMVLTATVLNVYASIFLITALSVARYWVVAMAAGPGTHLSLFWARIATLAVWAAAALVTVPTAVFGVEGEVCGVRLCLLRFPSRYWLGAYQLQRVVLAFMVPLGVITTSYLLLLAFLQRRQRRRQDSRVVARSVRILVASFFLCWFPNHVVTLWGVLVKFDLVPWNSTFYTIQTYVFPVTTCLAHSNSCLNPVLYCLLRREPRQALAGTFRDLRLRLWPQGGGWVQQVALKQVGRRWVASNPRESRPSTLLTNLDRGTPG

As to `COc1ccc2[nH]cc(/C(C)=N/NC(=N)NCCc3ccc(Cl)cc3)c2c1`, a half-maximal response on Relaxin-3 receptor 1 [1] (EC50) required 7690 nM.

In the case of `N=C(NCCc1ccc(Cl)cc1)N/N=C/c1c[nH]c2ccc(F)cc12`, the EC50 on Relaxin-3 receptor 1 [1] was found to be 1360 nM.

For the molecule `CCc1cc(OC)cc2c(/C=N/NC(=N)NCCc3cccnc3)c[nH]c12`, the EC50 on Relaxin-3 receptor 1 [1] stood at 2.3 nM; on Relaxin-3 receptor 2 it was 1.1 nM. In the data set “physchem”, this molecule returned a solubility (kinetic) at 2 h of 74.6 µM (≈ 27.2 µg/mL).

Consider `COC(=O)c1ccc(CCNC(=N)N/N=C/c2c[nH]c3c(C)cc(C#N)cc23)cc1`, for which the EC50 at Relaxin-3 receptor 2 was found to be 2.7 nM.

In turn, `CCc1cc(OC)cc2c(/C=N/NC(=N)NCCc3ccc(C#N)cc3)c[nH]c12` registered a concentration giving a half-maximal response (EC50) at Relaxin-3 receptor 2 of 1.8 nM.

Turning to `COc1cc(C)c2[nH]cc(/C=N/NC(=N)NCCc3ccc(I)cc3)c2c1`, at Relaxin-3 receptor 1 [1], the midpoint of the response, the EC50, lay at 67 nM.

In the case of `Cc1ccc2c(/C=N/NC(=N)NCCc3ccc(Cl)cc3)c[nH]c2c1`, at Relaxin-3 receptor 1 [1], the concentration giving a half-maximal response (EC50) was 7440 nM.

`COc1cc(C)c2[nH]cc(/C=N/NC(=N)NCCc3ccc(Cl)cc3)c2c1`: the response at Relaxin-3 receptor 1 [1] was half-maximal at 74.7 nM (EC50).

In the case of `COc1cc(C)c2[nH]cc(/C=N/NC(=N)NCCc3ccccc3)c2c1`, it took 224 nM to reach a half-maximal effect at Relaxin-3 receptor 1 [1] (EC50).

`N=C(NCCc1ccc(Cl)cc1)N/N=C/c1c[nH]c2ccccc12` yielded an EC50 on Relaxin-3 receptor 1 [1] of 6940 nM.

On Relaxin-3 receptor 1 [1], `COc1ccc(CCNC(=N)N/N=C/c2c[nH]c3c(C)cc(OC)cc23)cc1` showed a 50% effective concentration (EC50) of 56.1 nM.

`CCc1cc(OC)cc2c(/C=N/NC(=N)NCCc3ccc(Cl)cc3)c[nH]c12`: the EC50 at Relaxin-3 receptor 1 [1] was determined as 19.5 nM.

On to `CCc1cc(OC)cc2c(/C=N/NC(=N)NCCc3ccc(F)cc3)c[nH]c12`, for which the figures for the EC50 at Relaxin-3 receptor 1 [1] and at Relaxin-3 receptor 2 were 5.6 nM and 4 nM, respectively. In “physchem”, this molecule returned a solubility (kinetic) at 2 h of 19.5 µM (≈ 7.44 µg/mL).

On Relaxin-3 receptor 1 [1], `COc1cc(C)c2[nH]cc(/C=N/NC(=N)NCCc3ccc([N+](=O)[O-])cc3)c2c1` gave a half-maximal effective concentration (EC50) of 13.6 nM.

`N=C(NCCc1ccc(Cl)cc1)N/N=C/c1c[nH]c2ccc([N+](=O)[O-])cc12` gave a concentration giving a half-maximal response (EC50) at Relaxin-3 receptor 1 [1] of 317 nM.

Consider `COc1cc(C)c2[nH]cc(/C=N/NC(=N)NCCc3ccc(C#N)cc3)c2c1`, for which the Ki at Relaxin-3 receptor 1 [2] stood at 268 nM. The molecule further displayed a 50% effective concentration (EC50) on Relaxin-3 receptor 1 [1] of 13.2 nM.

At Relaxin-3 receptor 1 [1], `N=C(NCCc1ccc(Cl)cc1)N/N=C/c1c[nH]c2cc(F)ccc12` yielded a 50% effective concentration (EC50) of 3470 nM.

At Relaxin-3 receptor 1 [1], `COc1cc(C)c2[nH]cc(/C=N/NC(=N)Nc3ccc(Cl)cc3)c2c1` displayed an EC50 of 3120 nM.

`COc1ccc2c(/C=N/NC(=N)NCCc3ccc(Cl)cc3)c[nH]c2c1` registered an EC50 on Relaxin-3 receptor 1 [1] of 4750 nM.

`CCc1cc(C#N)cc2c(/C=N/NC(=N)NCCc3cccnc3)c[nH]c12` yielded an EC50 on Relaxin-3 receptor 2 of 0.9 nM.

On to `COC(=O)c1ccc(CCNC(=N)N/N=C/c2c[nH]c3c(C)cc(OC)cc23)cc1`, for which the EC50 at Relaxin-3 receptor 1 [1] turned out to be 7.7 nM; at Relaxin-3 receptor 2, 3.4 nM.

`N=C(NCCc1ccc(Cl)cc1)N/N=C/c1c[nH]c2cccc(F)c12`: the response on Relaxin-3 receptor 1 [1] was half-maximal at 3210 nM (EC50).

`COc1cc(C)c2[nH]cc(/C=N/NC(=N)NCc3ccc(Cl)cc3)c2c1` yielded an EC50 at Relaxin-3 receptor 1 [1] of 3950 nM.

In turn, `COc1cc(C)c2[nH]cc(/C=N/NC(=N)NCCc3ccc(Br)cc3)c2c1` yielded a half-maximal effective concentration (EC50) at Relaxin-3 receptor 1 [1] of 69.9 nM.

At Relaxin-3 receptor 1 [1], `N#Cc1ccc2[nH]cc(/C=N/NC(=N)NCCc3ccc(Cl)cc3)c2c1` came in with a concentration for a half-maximal effect (EC50) of 253 nM.

At Relaxin-3 receptor 1 [1], `Cc1cccc2c(/C=N/NC(=N)NCCc3ccc(Cl)cc3)c[nH]c12` showed a concentration for a half-maximal effect (EC50) of 647 nM.

`N=C(NCCc1ccc(Cl)cc1)N/N=C/c1c[nH]c2c(F)cccc12`: a half-maximal response at Relaxin-3 receptor 1 [1] (EC50) required 2790 nM.

`COc1cc(C)c2[nH]cc(/C=N/NC(=N)NCCc3ccccn3)c2c1` came in with an EC50 at Relaxin-3 receptor 1 [1] of 855 nM.

`COc1cc(C)c2[nH]cc(/C=N/NC(=N)NCCc3ccc(N(C)C)cc3)c2c1` returned a concentration giving a half-maximal response (EC50) on Relaxin-3 receptor 1 [1] of 98.4 nM.

In turn, `Cc1cc(C#N)cc2c(/C=N/NC(=N)NCCc3ccc(Cl)cc3)c[nH]c12` had a 50% effective concentration (EC50) at Relaxin-3 receptor 1 [1] of 82.3 nM.

`COc1cc(C)c2[nH]cc(/C=N/NC(=N)NCCCc3ccc(Cl)cc3)c2c1`: the half-maximal effective concentration (EC50) at Relaxin-3 receptor 1 [1] amounted to 1660 nM.

In the case of `N=C(NCCc1ccc(Cl)cc1)N/N=C/c1c[nH]c2ccc(Cl)cc12`, a half-maximal response at Relaxin-3 receptor 1 [1] (EC50) required 2820 nM.

In turn, `CCc1cc(O)cc2c(/C=N/NC(=N)NCCc3ccc(Cl)cc3)c[nH]c12` displayed an EC50 on Relaxin-3 receptor 2 of 0.8 nM.
